# Source: patent publication US11612604B2, “Methods of treating cancer with PLK4 inhibitors” (LUDWIG INSTITUTE FOR CANCER RESEARCH LTD, priority 2017, dated 2023)
# Columns and labels:
# [1] = test system: CHP134 cells harboring the G95L mutant PLK4; assay: Proliferation (passaging) assay, CHP134 cells with G95L mutant PLK4; type: cell-based; conditions: 150 nM centrinone
# Protocol: (§1) All 6 of the neuroblastoma cell lines grew robustly in the presence of DMSO in 12-day passaging assays.
# (§2) Cell lines: Cells were maintained in ATCC-recommended complete growth media with 100 U/mL penicillin and 100 μg/mL streptomycin at 37° C. and 5% CO2. The RPE-1 TRIM37Δ knockout cell line was previously described (Meitinger et al., 2016). The CHP134 and HCT116 TRIM37Δ knockout cell lines were generated by transfection and nucleofection, respectively, of preassembled RNPs using a TRIM37 specific gRNA ([…]). The CHP134 G95L cell line was generated as previously described (Wong et al., 2015). For generation of H2B-mRFP expressing cell lines, cells were infected with a H2B-mRFP expressing lentiviral construct (Meitinger et al., 2016). Populations of each cell line expressing H2B-mRFP were enriched by FACS. To knock down TP53 (p53), cells were infected with a lentivirus containing sh-p53 made using the plasmid shp53 pLKO.1 puro (Godar et al., Cell. 134:62-73 (2008)). Positive selection of sh-p53 expressing cells was performed 2 days after infection with 10 μg/ml puromycin.
# (§3) Plated cell numbers were adjusted to the cell line characteristics (doubling time and cell size). At 96-hour intervals, plates were harvested, counted and re-plated at 25,000-150,000 cells/plate. Cell counting was performed using a TC20 automated cell counter (Bio-Rad).
# [2] = test system: RPE1 cells and primary cell cultures; conditions: cited from earlier work
# [3] = test system: CHP134 cells and CHP134 clones with varying TRIM37 levels; assay: ATPlite cellular proliferation assay in CHP134 clones; type: cell-based; conditions: 5 days in 125 nM centrinone, WT CHP134 cells
# Protocol: After CRISPR targeting, CHP134 clones with varying TRIM37 copy numbers were isolated and the levels of TRIM37 protein were measured by quantitative western blotting. Alpha-tubulin was used as a blotting control. Clones with TRIM37 levels between 12 and 64% of the levels in the WT cell line were isolated. […] Results are expressed as the percent of the value for the equivalent DMSO-treated control and are plotted versus measured TRIM37 protein level. […] Thus, for centrinone-treated CHP134 cells, mitotic success and cell viability both decreased as TRIM37 levels increased.
# [4] = test system: caspase-3/7 activity in 'Sensitive' neuroblastoma and 'Not Sensitive' (RPE1, BT-12, BT-16) cell lines; assay: Caspase activation assay; type: cell-based; conditions: 150 nM centrinone, four cell cycle durations
# [5] = test system: RPE1, BT-12, BT-16, CHP212, CHP134 and SK-N-F1 cells; assay: Assessing mitotic phenotypes and mitotic duration by live cell imaging; type: cell-based; conditions: for rates of anaphase failure and/or cell death during mitosis: three cell cycles in 150 nM centrinone
# Protocol: To examine the effects of centrosome removal, progression through mitosis after centrosome depletion was analyzed in three control cell lines with low TRIM37 levels (RPE1, BT-12 and BT-16), and in the three cell lines with the highest TRIM37 levels (CHP212, CHP134 and SK-N-F1). All of the tested cell lines, with the exception of SK-N-F1, were p53+.
# For cells that completed mitosis, the inventors measured mitotic duration to determine if they would be likely to die due to tripping the mitotic duration sensor. […] The mean duration of mitosis in control SK-N-F1 cells, a p53− neuroblastoma cell line, was longer (104.7 minutes).
# Assessing mitotic phenotypes: First, the cell cycle duration of the indicated cell lines was determined for each cell line by imaging cells expressing H2B-mRFP for 48-72 hours. The mean time from the beginning the first mitosis (nuclear envelope breakdown) until the beginning of the second mitosis in each daughter cell was the cell line specific cell cycle duration. […] Cells were seeded into 96-well polystyrene plates at 10,000 cells/well, 14-16 hours before imaging. Images were acquired on a CQ1 spinning disk confocal systems (Yokogawa Electric Corporation) with an Olympus UPLSAPO40 X 40×0.95 objective and 2560×2160 sCMOS camera (Andor) at 37° C. and 5% CO2 at 2×2 binning. Image acquisition and data analysis were performed using CellVoyager software and ImageJ, respectively. 12-24 fields/well were imaged. 5×2 μm z-sections in RFP (25% power, 150 ms) channels were captured in each field at 4-minute intervals for 24 hours. Mitotic duration was measured as the interval between nuclear envelope breakdown and chromosome decondensation. Mitotic phenotypes were categorized into ‘bipolar’, ‘multipolar’, ‘cell death during mitosis’ and ‘anaphase failure’.
# [6] = test system: control cell lines (HepG2, BT-12, BT-16, SK-ES-1, A673); assay: Proliferation (12-day passaging) assay, control cell lines; type: cell-based; conditions: 150 nM centrinone, 12 days, five control cell lines
# Protocol: as §1, §3
# [7] = test system: neuroblastoma cell lines (SH-SY5Y, CHP134, IMR32, CHP212, SK-N-SH, SK-N-F1); assay: Proliferation (12-day passaging) assay, neuroblastoma cell lines; type: cell-based; conditions: 150 nM centrinone, 12 days, all 6 neuroblastoma cell lines
# Protocol: as §1, §3
# [8] = test system: breast cancer cell lines (BT474, MCF7, MDA-MB-231); assay: Proliferation (passaging) assay, breast cancer cell lines; type: cell-based; conditions: 150 nM centrinone, BT474 and MCF7 (TRIM37 locus amplified)
# Protocol: Sensitivity to centrosome removal correlated with TRIM37 copy number in breast cancer as well. FIG. 3A is a graph plotting TRIM37 copy number versus expression level for breast cancer cell lines (data from the CCLE database; (Barretina et al., 2012)).
# as §3
# [9] = test system: CHP134 cells in which TRIM37 was deleted, p53 was knocked down, or both; assay: Proliferation (12-day passaging) assay, CHP134 TRIM37 deletion / p53 knockdown cells; type: cell-based
# Protocol: as §2, §3
smiles,measurement,setting,value
COc1c(Nc2cc(C)[nH]n2)nc(Sc2ccc(S(=O)(=O)Cc3cccc([N+](=O)[O-])c3F)cc2F)nc1N1CCOCC1 [centrinone],proliferation in passaging assay,[1],proliferated in centrinone at a rate comparable to non-mutant cells in DMSO
same,response to centrinone-induced centrosome loss,[2]; RPE1 cells and 3 primary cell cultures with intact p53 pathway (Wong et al.),stabilize p53 and arrest in G1
same,effect on centriole duplication,[2]; centrinone treatment (Wong et al.),blocks centriole duplication
same,"cellular proliferation (ATPlite), percent of DMSO-treated control",[3],loss in proliferation comparable to that of the two highest mutant clones
same,caspase activity,"[4]; 'Not Sensitive' cell lines (RPE1, BT-12, BT-16)",relatively low levels
same,caspase activity,[4]; three 'Sensitive' neuroblastoma cell lines,high levels of caspase activity
same,mean duration of mitosis after centrosome removal,[5]; CHP134,257 min
same,cells that fail to segregate their chromosomes,"[5]; CHP134, absence of centrioles (FIG. 5A)",about 36%
same,mean duration of mitosis after centrosome removal,[5]; CHP212,221 min
same,mitotic duration,"[5]; control RPE1 cells and RPE1 TRIM37Δ reconstituted with wild-type TRIM37, after centrinone",substantial increase in mitotic duration
same,rates of anaphase failure and/or cell death during mitosis,"[5]; cell lines with high TRIM37 levels (CHP212, CHP134, SK-N-F1)",31-74%
same,rates of anaphase failure and/or cell death during mitosis,"[5]; three cell lines with low TRIM37 levels (RPE1, BT-12, BT-16)",3-14%
same,proliferation in passaging assay,[6],continued to proliferate
same,cell number in passaging assay,[7],cell number rapidly declined to zero
same,sensitivity to centrosome removal in passaging assay,[8],highly sensitive
same,proliferation in passaging assay,"[9]; centrinone, CHP134 with TRIM37 deleted and p53 knocked down",robust proliferation in centrinone
same,proliferation in 12-day passaging assay,"[9]; centrinone, CHP134 with shRNA-mediated knockdown of p53",allowed CHP134 cells to proliferate
same,proliferation in 12-day passaging assay,"[9]; centrinone-treated CHP134, TRIM37 deletion",enabled their proliferation
